Measurements taken from US10774084B2, “Adenine derivatives and their use as UV-photoprotective agents” (UNIVERZITA PALACKEHO V OLOMOUCI, priority 2015, dated 2020).

How the values were obtained:
[1] = system: BJ human fibroblast cells; assay: Calcein AM cytotoxicity assay; format: cell-based; settings: 72 hrs
Source text: (§1) One of the parameters used as the base for cytotoxic analysis is metabolic activity of viable cells. Microtiter assay, which uses the Calcein AM, is now widely used to quantify cell proliferation and cytotoxicity. The quantity of […] Calcein AM corresponds to the number of viable cells in culture. The cell lines of breast cancer (MCF-7), human erythromleukemia (K562), BJ human fibroblast cells (BJ) and human keratinocyte cell line (HaCaT) were used for routine screening of cytotoxicity of the compounds. The cells were maintened in Nunc/Corning 80 cm^2 plastic bottles and grown in media for cell culture (DMEM containing 5 g/l of glucose, 2 mM of glutamin, 100 U/ml of penicilin, 100 μg/ml of streptomycin, 10% of fetal bovine serum and sodium hydrogencarbonate). Cell suspensions were diluted according to cell types and according to expected final cell density (10^4 of cells per well according to characteristics of cell growth), pippeted 80 μl of cell suspension on 96-well microtiter plates. Innoculates were stabilized by 24 hrs preincubation at 37° C. in CO2. Particular concentrations of tested compounds were added in time zero as 20 μl aliquotto wells of microtiter plates. Usually, the compounds were diluted into six concentrations in four-fold dilution series. In routine testing, the highest well concentration was 166.7 μM, of change dependent on the substance. All drug concentrations were examined in duplicates. The incubation of cells with tested derivatives lasted 72 hrs at 37° C., 100% humidity and in the atmosphere of CO2. At the end of the incubation period, the cells were tested and analysed according to the addition of Calcein AM (Molecular probes) solution and the incubation lasted for next 1 hour. Fluorescence (FD) was measured using Labsystem FIA reader Fluorskan Ascent (Microsystems). The survival of tumor cells (The tumor cell survival-TCS) was counted according to equation: […](FDwell with derivative/FDcontrol well)×100%. The value of GI50, that is equal to the concentration of compound at which 50% of tumour cells are terminated. To evaluate the antitumor activity was tested toxicity of new derivatives on panel of cell lines of different histogenetic and species origin (Tab. 6, G150 concentration given in μM). […] Effective derivatives killed tumor cells in concentrations close to 0.1 to 50. None of the newly prepared compounds only reached the value.

HaCaT [2] = assay: Calcein AM cytotoxicity assay; format: cell-based; settings: Homo sapiens, 72 hrs
Source text: as §1

MCF-7 = assay: Calcein AM cytotoxicity assay; format: cell-based; settings: Homo sapiens, MCF7, 72 hrs
Source text: as §1

K562 = assay: Calcein AM cytotoxicity assay; format: cell-based; settings: Homo sapiens, 72 hrs
Source text: as §1

[3] = system: Triticum aestivum cv. Hereward leaf segments; assay: Senescence bioassay on detached wheat leaf segments (chlorophyll retention); settings: for maximum effective concentration: 96 h in the dark; for activity (%) [10^−4 mol · l^−1 BAP = 100%]: at maximum effective concentration
Procedure: Seeds of winter wheat, Triticum aestivum cv. Hereward, were washed under running water for 24 hours and then sown on vermiculite soaked with Knop's solution. They were placed in the growth chamber at 25° C. with a 16/8 h light period at […]. After 7 days, the first leaf was fully developed and the second leaf had started to grow. A tip section of the first leaf, approximately 35 mm long, was removed from 5 seedlings and trimmed slightly to a combined weight of 100 mg. The basal ends of the five leaf tips were placed in the wells of a microtiter polystyrene plate containing 150 μL of the tested derivative solution each. The entire plate was inserted into a plastic box lined with paper tissues soaked in distilled water to prevent leaf sections from drying out. After 96 h incubation in the dark at 25° C., the leaves were removed and chlorophyll extracted by heating at 80° C. for 10 min in 5 mL of 80% ethanol (v/v). The sample volume was then restored to 5 mL by the addition of 80% ethanol (v/v). The absorbance of the extract was recorded at 665 nm. In addition, chlorophyll extracts from fresh leaves and leaf tips incubated in deionised water were measured. The results are means of five replicates and the entire test was repeated twice. […] The compounds to be tested were dissolved in dimethylsulfoxide (DMSO) and the solution brought up to 10^−3 M with distilled water. […] The activity obtained for 10^−4 M of BAP was postulated as 100%. Kinetin was used as the second standard. Newly prepared compounds generally exceeded the efficiency of standard (BAP) by 10% of its activity (Tab. 5).

[4] = system: skin fibroblasts BJ and keratinocytes HaCaT; assay: MTT in vitro cytotoxicity test for skin cells; format: cell-based; settings: Homo sapiens; 72 hour treatment; table does not say which cell line (BJ, HaCaT)
Procedure: MTT assay is a standard test of toxicity based on photometric measurement of the ability of metabolically active cells to reduce MTT (3-(4,5-dimethylthiazol-2-yl)-2,5-diphenyltetrazolium bromide). Using the assay, the effects of 72 hour treatments with several concentrations of the compounds (sixfold dilution, maximal concentration=50 microM) on viability of skin fibroblasts BJ and keratinocytes HaCaT were evaluated. About 5,000 cells were seeded per well of a 96-well plate 24 hours before the treatment. DMSO vehiculum was used as a negative control. After 72 hour treatment, new medium with MTT (Sigma, M2128) was added to a final concentration of 0.5 mg/ml. After 3 hours, medium was removed and resulting formazan in the cells was dissolved in DMSO. The absorbance was measured at 570 nm (640 nm reference wavelength). The IC50 values were calculated from the dose-response curves. 6-furfurylaminopurine riboside was used as positive controls.

[5] = system: Normal human dermal fibroblasts (NHDF); assay: In vitro UVA/UVB photoprotection test on NHDF (Example 9); format: cell-based
Source text: Normal human dermal fibroblasts (NHDF) were used as an in vitro model. Cells were isolated from tissue specimens obtained from healthy patients undergoing plastic surgery at the Department of Plastic and Aesthetic Surgery (University Hospital Olomouc). The use of skin tissue was in accordance with the Ethics Committee of the University Hospital and Faculty of Medicine and Dentistry, Palacky University, Olomouc and all patients signed written informed consent. Fibroblasts were used between the 2nd and 4th passage. For all experiments the fibroblasts were seeded onto 96-well plates at a density of 0.8×10^5 cells/ml (0.2 ml per well) of cultivation medium (DMEM supplemented with fetal calf serum (10%, v/v), penicillin ([…]) and streptomycin (100 U/ml)). Test substances included compounds number 1, 3, 9, 15 and 20. Compounds were dissolved in DMSO and then diluted in serum free medium (DMEM supplemented with penicillin ([…]) and streptomycin (100 U/ml)). After 24 h incubation was cultivation medium changed to serum free medium containing test compound or DMSO (negative control). The final applied concentrations range was 3.9-31.3 μmol/ll. As a control serum free medium supplemented with appropriate concentration of DMSO (0.5%, v/v) was used. Rosmarinic acid was used as positive control. Each test compound was in parallel applied on two 96-well plates with NHDF. After 60 minutes incubation medium with test compound was discarded, cells were washed two-times with PBS and PBS supplemented with glucose (1 mg/ml) was applied. To study UVA photoprotection, a plate was exposed to a cytotoxic dose of UVA radiation (7.5 J/cm^2) using a solar simulator SOL 500 (Dr. Hoenle Technology, Germany) equipped with a H1 filter transmitting wavelengths of 320-400 nm. To study UVB photoprotection, a plate was exposed to a cytotoxic dose of UVB radiation (150 mJ/cm^2) using the solar simulator equipped with a H2 filter transmitting wavelengths of 295-320 nm. Intensity of UVA or UVB radiation was evaluated before each irradiation by UVA- or UVB-meter. Control (non-irradiated) plates were for the period of irradiation incubated in dark. After UVA or UVB exposure PBS with glucose was discarded and serum free medium was applied. After 24 hours (37° C., 5% CO2) cell damage was evaluated by neutral red (NR) incorporation into viable cells. Medium was discarded and NR solution (0.03% w/v, PBS) was applied. After 60 minutes NR solution was discarded, cells were fixed with a mixture of formaldehyde (0.5%, v/v) and CaCl2 (1%, m/v) in ratio 1:1 and then NR was dissolved in methanol (50%, v/v) with acetic acid (1%, v/v). After 5 minutes of intensive shaking absorbance was measured at 540 nm. Experiments were performed in four independent repetitions with use of cells from four donors to minimize individual sensitivity of donor cells. Photoprotective effect was evaluated by comparison of experimental data (absorbance) of test compounds with a positive control and a negative control (according to the following equation:
[formula] • As . . . absorbance of sample (cells pre-incubated with test compounds in serum free medium and irradiated) • Anc . . . absorbance of negative control (cells pre-incubated with s DMSO in serum free medium and non-irradiated=incubated in dark) • Apc . . . absorbance of positive control (cells pre-incubated with s DMSO in serum free medium and irradiated)

HaCaT [6] = assay: In vitro UVA/UVB photoprotection test on HaCaT; format: cell-based, human
Procedure: Spontaneously Immortalized Aneuploid Human Keratinocyte Cell Line (HaCaT) was bought from CLS (Eppeheim, Germany) and used as an in vitro model. For all experiments the keratinocytes were seeded onto 96-well plates at a density of 1.6×10^5 cells/ml (0.2 ml per well) of growth medium (DMEM supplemented with fetal bovine serum (10%), penicillin ([…]) and streptomycin (100 U/ml)).
Test substances included compounds number 3, 9, 15 and 20. Compounds were dissolved in DMSO and then diluted in serum free medium (DMEM supplemented penicillin ([…]) and streptomycin (100 U/ml)). After 24 h incubation was growth medium changed to serum free medium containing test compounds. The final applied concentration range was 3.9-31.25 μmol/l. As a control, serum free medium supplemented with appropriate concentration of DMSO (0.5%, v/v) was used. Rosmarinic acid was used as positive control. After 60 minutes incubation with test compounds medium was discarded, cells were washed two-times with PBS and PBS supplemented with glucose (1 mg/ml) was applied. To study UVA photoprotection, a plate was exposed to a cytotoxic dose of UVA radiation (10 J/cm2) using a solar simulator SOL 500 (Dr. Hoenle Technology, Germany) equipped with a H1 filter transmitting wavelengths of 320-400 nm. To study UVB photoprotection, a plate was exposed to a cytotoxic dose of UVB radiation (150 mJ/cm2) using the solar simulator equipped with a H2 filter transmitting wavelengths of 295-320 nm. Intensity of UVA or UVB radiation was evaluated before each irradiation by UVA- or UVB-meter. Control (non-irradiated) plates were for the period of irradiation incubated in dark. After UVA or UVB exposure PBS with glucose was discarded and serum free medium was applied. After 24 hours (37° C., 5% CO2) cell damage was evaluated by neutral red (NR) incorporation into viable cells. Medium was discarded and NR solution (0.03% w/v, PBS) was applied. After 60 minutes NR solution was discarded, cells were fixed with a mixture of formaldehyde (0.5%, v/v) and CaCl2 (1%, m/v) in ratio 1:1 and then NR was dissolved in methanol (50%, v/v) with acetic acid (1%, v/v).
After 5 minutes of intensive shaking absorbance was measured at 540 nm. Experiments were performed in four independent repetitions with use of […] to minimize individual sensitivity of donor cells. Photoprotective effect was evaluated by comparison of experimental data (absorbance) of test compounds with a positive control and a negative control (according to the following equation: […]
As . . . absorbance of sample (cells pre-incubated with test compounds in serum free medium and irradiated)
Anc . . . absorbance of negative control (cells pre-incubated with s DMSO in serum free medium and non-irradiated=incubated in dark)
Apc . . . absorbance of positive control (cells pre-incubated with s DMSO in serum free medium and irradiated)

Compound: c1coc(CNc2ncnc3c2ncn3C2CCCO2)c1 (centres unmarked) [6-furfurylamino-9-(tetrahydrofuran-2-yl)purine]
- GI50 [1]: > 100 µM
- GI50 (HaCaT [2]): > 100 µM
- GI50 (MCF-7): > 100 µM
- GI50 (K562): > 100 µM
- maximum effective concentration [3]: 10^−4 mol · l^−1
- activity (%) [10^−4 mol · l^−1 BAP = 100%] [3]: 114 ± 3%

Compound: OC[C@H]1OC(n2cnc3c(NCc4ccco4)ncnc32)[C@H](O)[C@@H]1O (some centres unmarked) [6-furfurylamino-9-ribosylpurine, reference compound]
- IC50 [4]: ≤ 3 µM

Compound: c1ccc(CNc2ncnc3nc[nH]c23)cc1 [BAP, 6-benzylaminopurine, reference compound]
- maximum effective concentration [3]: 10^−4 mol · l^−1
- activity (%) [10^−4 mol · l^−1 BAP = 100%] [3]: 100 ± 1%

Compound: Cc1ccsc1CNc1ncnc2c1ncn2C1CCCO1 (centres unmarked) [Compound 10, 6-(3-methylthiophen-2-ylmethylamino)-9-(tetrahydrofuran-2-yl)purine]
- maximum effective concentration [3]: 10^−4 mol · l^−1
- activity (%) [10^−4 mol · l^−1 BAP = 100%] [3]: 110 ± 7%

Compound: O=C(/C=C/c1ccc(O)c(O)c1)O[C@H](Cc1ccc(O)c(O)c1)C(=O)O [RA, rosmarinic acid, reference compound]
- Protection (%) ([5]; UVA 7.5 J/cm^2, 3.9 μmol/l): 6.1%
- Protection (%) ([5]; UVA 7.5 J/cm^2, 7.8 μmol/l): 14.7%
- Protection (%) ([5]; UVA 7.5 J/cm^2, 15.6 μmol/l): 17.0%
- Protection (%) ([5]; UVA 7.5 J/cm^2, 31.3 μmol/l): 19.3%
- Protection (%) ([5]; UVB 150 mJ/cm^2, 3.9 μmol/l): 36.8%
- Protection (%) ([5]; UVB 150 mJ/cm^2, 7.8 μmol/l): 50.9%
- Protection (%) ([5]; UVB 150 mJ/cm^2, 15.6 μmol/l): 52.9%
- Protection (%) ([5]; UVB 150 mJ/cm^2, 31.3 μmol/l): 67.7%
- Protection (%) (HaCaT [6]; Table 17: UVA-induced damage (10 J/cm2), 3.9 μmol/l): 23.6%
- Protection (%) (HaCaT [6]; Table 17: UVA-induced damage (10 J/cm2), 7.8 μmol/l): 42.3%
- Protection (%) (HaCaT [6]; Table 17: UVA-induced damage (10 J/cm2), 15.6 μmol/l): 36.2%
- Protection (%) (HaCaT [6]; Table 17: UVA-induced damage (10 J/cm2), 31.3 μmol/l): 44.0%
- Protection (%) (HaCaT [6]; Table 18: titled UVA-induced damage, 3.9 μmol/l): 22%
- Protection (%) (HaCaT [6]; Table 18: titled UVA-induced damage, 7.8 μmol/l): 48.5%
- Protection (%) (HaCaT [6]; Table 18: titled UVA-induced damage, 15.6 μmol/l): 55.7%
- Protection (%) (HaCaT [6]; Table 18: titled UVA-induced damage, 31.3 μmol/l): 54.3%

Compound: c1coc(CNc2ncnc3nc[nH]c23)c1 [kinetin, 6-furfurylaminopurine, reference compound]
- maximum effective concentration [3]: 10^−4 mol · l^−1
- activity (%) [10^−4 mol · l^−1 BAP = 100%] [3]: 98 ± 4%
